# Source: patent US9919055B2, “Sugar-linker-drug conjugates” (Arizona Board of Regents on Behalf of Arizona State …, priority 2013, dated 2018)
# Legend:
# [1] = test system: MTX Resistant DU-145 Cells; experiment: In vitro cell growth inhibition test (MTT assay, cell viability); type: cell-based, human; settings: 72 h incubation, DU-145-MTX cells
# Experimental: (§1) A methotrexate resistant cell line. DU 145(MTX) was developed from parental DU 145 cells by exposure to increasing concentrations (starting at 0.1 μM) of methotrexate over a period of 6 months. DU 145(MTX) was at least 250-fold less sensitive to methotrexate than parental cells.
# The human prostate cancer cell lines DU-145 (ATCC) was cultured in MEM media with glutamine and supplemented with 10% fetal bovine serum, penicillin (100 U/mL) and streptomycin ([…]) in air enriched with 5% CO2 at 37° C.
# Cell viability was determined using the MTT assay. Briefly, cells were seeded in 96-well plates at a density of 3000 cells per well in 0.1 mL MEM media supplemented with 10% fetal bovine serum, and test compounds were concomitantly added in a concentration range of 0.001-1000 μM. Dilutions were made using the culture medium from 1 mM stock solutions of the drugs in anhydrous DMSO. Controls were treated with an equivalent amount of solvent, diluted as above, to assess the absence of toxicity due to the solvent. After 72 h of incubation, 15 μL of 5 mg mL^−1 MTT dye (3-[4,5-dimethylthiazol-2-yl]-2,5-diphenyltetrazolium bromide, sigma) was added for 4 h at 37° C. Media was removed and the monolayer suspended in 0.15 mL of DMSO, after which the absorbance at 570 nm was measured using a microplate reader. The control value corresponding to untreated cells was defined as 100% and the viability of treated samples was expressed as a percentage of the control.
# [2] = test system: DU 145(MTX) cells; experiment: Sensitivity of methotrexate resistant cell line DU 145(MTX) versus parental DU 145 cells; type: cell-based, human
# Experimental: as §1
smiles,measurement,setting,value
"CN(Cc1cnc2nc(N)nc(N)c2n1)c1ccc(C(=O)N[C@@H](CCC(=O)O)C(=O)O)cc1 [Methotrexate (MTX), Methotrexate, reference compound]",DU-145-MTX (% cell survival),[1]; 100 nM test compound,82%
same,DU-145-MTX (% cell survival),[1]; 1 μM test compound,84%
same,DU-145-MTX (% cell survival),[1]; 10 μM test compound,83%
same,fold less sensitive to methotrexate than parental cells,[2],at least 250 fold
